Data published in patent publication US20240101531A1, “PYRIDINAMINE DERIVATIVES AND THEIR USE AS POTASSIUM CHANNEL MODULATORS” (Xenon Pharmaceuticals Inc., priority 2022, published 2024).
Counter-ions that a name gives are not always drawn.

target: human KV7.2/KV7.3 (Homo sapiens (Human), UniProt O43525+O43526); assay: Potassium flux assay (IPG-2 AM dye); format: cell-based; settings: TREX HEK 293 or HEK 293 cells expressing human KV7.2/KV7.3; arithmetic mean values
Method in brief: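 EC50 from 16 concentrations (2-fold dilutions, top 30 μM), scaled between DMSO baseline and a known KV7.x modulator maximum. Signal is IPG-2 AM fluorescence (ex 530/em 558 nm) after 10 mM KCl challenge buffer addition, following 20 min room-temperature compound exposure of HEK 293 or TREX HEK 293 cells stably expressing human KV7.2/KV7.3.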

EC50, 1 to 10 µM:
COCCOCCOc1ccc2c(Nc3ccc(Cl)nc3)nccc2c1 [Example 236, N-(6-chloropyridin-3-yl)-6-(2-(2-methoxyethoxy)ethoxy)isoquinolin-1-amine]
OC(COc1ccc2c(Nc3ccc(Cl)nc3)nccc2c1)C(F)(F)F (stereo not shown) [Example 240, 3-((1-((6-chloropyridin-3-yl)amino)isoquinolin-6-yl)oxy)-1,1,1-trifluoropropan-2-ol]
Cn1cc(CNc2ccc3c(Nc4ccc(Cl)nc4)nccc3c2)cn1 [Example 244, N′-(6-chloropyridin-3-yl)-N^6-((1-methyl-1H-pyrazol-4-yl)methyl)isoquinoline-1,6-diamine]
CC1(CNc2ccc3c(Nc4ccc(Cl)nc4)nccc3c2)COC1 [Example 245, N′-(6-chloropyridin-3-yl)-N^6-((3-methyloxetan-3-yl)methyl)isoquinoline-1,6-diamine]
CN(C)C(=O)/C=C/c1ccc2c(Nc3ccc(Cl)nc3)nccc2c1 [Example 246, (E)-3-(1-((6-chloropyridin-3-yl)amino)isoquinolin-6-yl)-N,N-dimethylacrylamide]
Clc1ccc(Nc2nccc3cc(CNc4cn[nH]c4)ccc23)cn1 [Example 248, 6-(((1H-pyrazol-4-yl)amino)methyl)-N-(6-chloropyridin-3-yl)isoquinolin-1-amine]
Cn1cc(OCc2ccc3c(Nc4ccc(Cl)nc4)nccc3c2)cn1 [Example 249, N-(6-chloropyridin-3-yl)-6-(((1-methyl-1H-pyrazol-4-yl)oxy)methyl)isoquinolin-1-amine]
Clc1ccc(Nc2nccc3cc(OCC4CC4)cnc23)cn1 [Example 255, N-(6-chloropyridin-3-yl)-3-(cyclopropylmethoxy)-1,7-naphthyridin-8-amine]
Cc1ccc(Nc2nccc3cc(OCC4CC4)cnc23)cn1 [Example 256, 3-(cyclopropylmethoxy)-N-(6-methylpyridin-3-yl)-1,7-naphthyridin-8-amine]
Cc1ncc(Nc2nccc3cc(OCC4CC4)cnc23)cn1 [Example 257, 3-(cyclopropylmethoxy)-N-(2-methylpyrimidin-5-yl)-1,7-naphthyridin-8-amine]
Cc1ncc(Nc2nccc3cc(OCc4cnn(C)c4)cnc23)cn1 [Example 258, 3-((1-methyl-1H-pyrazol-4-yl)methoxy)-N-(2-methylpyrimidin-5-yl)-1,7-naphthyridin-8-amine]
CC1(COc2cnc3c(Nc4ccc(Cl)nc4)nccc3c2)COC1 [Example 259, N-(6-chloropyridin-3-yl)-3-((3-methyloxetan-3-yl)methoxy)-1,7-naphthyridin-8-amine]
O=S1(=O)CC[C@@H](Oc2ccc3c(Nc4ccc(Cl)nc4)nccc3c2)C1 [Example 261, (R)-3-((1-((6-chloropyridin-3-yl)amino)isoquinolin-6-yl)oxy)tetrahydrothiophene 1,1-dioxide]
O=S1(=O)CC[C@H](Oc2ccc3c(Nc4ccc(Cl)nc4)nccc3c2)C1 [Example 262, (S)-3-((1-((6-chloropyridin-3-yl)amino)isoquinolin-6-yl)oxy)tetrahydrothiophene 1,1-dioxide]
C[C@]1(O)CC[C@H](Oc2ccc3c(Nc4ccc(Cl)nc4)nccc3c2)CC1 [Example 264, trans-4-((1-((6-chloropyridin-3-yl)amino)isoquinolin-6-yl)oxy)-1-methylcyclohexan-1-ol]

EC50, < 1 µM:
N#CC1(COc2ccc3c(Nc4ccc(Cl)nc4)nccc3c2)CC(F)(F)C1 [Example 234, 1-(((1-((6-chloropyridin-3-yl)amino)isoquinolin-6-yl)oxy)methyl)-3,3-difluorocyclobutane-1-carbonitrile]
Cc1ncc(Nc2nccc3cc(OCC4(C#N)CC(F)(F)C4)ccc23)cn1 [Example 235, 3,3-difluoro-1-(((1-((2-methylpyrimidin-5-yl)amino)isoquinolin-6-yl)oxy)methyl)cyclobutane-1-carbonitrile formate]
C[C@H](Oc1ccc2c(Nc3ccc(Cl)nc3)nccc2c1)c1ccncc1 [Example 237, (S)—N-(6-chloropyridin-3-yl)-6-(1-(pyridin-4-yl)ethoxy)isoquinolin-1-amine]
OCC1(COc2ccc3c(Nc4ccc(Cl)nc4)nccc3c2)CC1 [Example 238, (1-(((1-((6-chloropyridin-3-yl)amino)isoquinolin-6-yl)oxy)methyl)cyclopropyl)methanol]
FC1(COc2ccc3c(Nc4ccc(Cl)nc4)nccc3c2)CCOCC1 [Example 239, N-(6-chloropyridin-3-yl)-6-((4-fluorotetrahydro-2H-pyran-4-yl)methoxy)isoquinolin-1-amine]
Cc1ncc(Nc2nccc3cc(OCc4cnoc4)ccc23)cn1 [Example 241, 6-(isoxazol-4-ylmethoxy)-N-(2-methylpyrimidin-5-yl)isoquinolin-1-amine]
Clc1ncc(Nc2nccc3cc(OCc4cnoc4)ccc23)cn1 [Example 242, N-(2-chloropyrimidin-5-yl)-6-(isoxazol-4-ylmethoxy)isoquinolin-1-amine]
CN(Cc1ccc2c(Nc3ccc(Cl)nc3)nccc2c1)c1cn[nH]c1 [Example 250, N-(6-chloropyridin-3-yl)-6-((methyl(1H-pyrazol-4-yl)amino)methyl)isoquinolin-1-amine]
Cn1cc(COc2cnc3c(Nc4ccc(Cl)nc4)nccc3c2)cn1 [Example 252, N-(6-chloropyridin-3-yl)-3-((1-methyl-1H-pyrazol-4-yl)methoxy)-1,7-naphthyridin-8-amine]
Cn1cc(COc2cnc3c(Nc4cnc(Cl)nc4)nccc3c2)cn1 [Example 253, N-(2-chloropyrimidin-5-yl)-3-((1-methyl-1H-pyrazol-4-yl)methoxy)-1,7-naphthyridin-8-amine]
N#CC1(COc2cnc3c(Nc4cnc(Cl)nc4)nccc3c2)CC1 [Example 254, 1-(((8-((2-chloropyrimidin-5-yl)amino)-1,7-naphthyridin-3-yl)oxy)methyl)cyclopropane-1-carbonitrile]
Clc1ccc(Nc2nccc3cc(OCCCc4cn[nH]c4)ccc23)cn1 [Example 260, 6-(3-(1H-pyrazol-4-yl)propoxy)-N-(6-chloropyridin-3-yl)isoquinolin-1-amine]
Clc1ccc(Nc2nccc3cc(OC4CCOC4)ccc23)cn1 (stereo not shown) [Example 263, N-(6-chloropyridin-3-yl)-6-((tetrahydrofuran-3-yl)oxy)isoquinolin-1-amine]
C[C@]1(O)CC[C@@H](Oc2ccc3c(Nc4ccc(Cl)nc4)nccc3c2)CC1 [Example 265, cis-4-((1-((6-chloropyridin-3-yl)amino)isoquinolin-6-yl)oxy)-1-methylcyclohexan-1-ol]

EC50, 10 to 30 µM:
Oc1ccc2c(Nc3cnc(Cl)nc3)nccc2c1 [Example 243, 1-((2-chloropyrimidin-5-yl)amino)isoquinolin-6-ol]
Fc1cc2c(Nc3ccc(Cl)nc3)nccc2cc1OCC1(F)CC1 [Example 247, N-(6-chloropyridin-3-yl)-7-fluoro-6-((1-fluorocyclopropyl)methoxy)isoquinolin-1-amine]
